# Reference: patent publication US8063053B2, “1-(arylsulfonyl)-4-(piperazin-1-yl)-1H-benzimidazoles as 5-hydroxytryptamine-6 ligands” (Wyeth LLC, priority 2008, dated 2011)
# Target: T1, serotonin 5-HT6 receptor subtype (Homo sapiens, UniProt P50406)
# T1 construct: host or cells: CHO-Dukx-A2 cells, clone 50-7
# Test: 5-HT6 binding affinity ([3H]-LSD SPA binding)
# Conditions: read-out: 5-HT6 binding Ki
# T1 sequence (P50406 whole entry): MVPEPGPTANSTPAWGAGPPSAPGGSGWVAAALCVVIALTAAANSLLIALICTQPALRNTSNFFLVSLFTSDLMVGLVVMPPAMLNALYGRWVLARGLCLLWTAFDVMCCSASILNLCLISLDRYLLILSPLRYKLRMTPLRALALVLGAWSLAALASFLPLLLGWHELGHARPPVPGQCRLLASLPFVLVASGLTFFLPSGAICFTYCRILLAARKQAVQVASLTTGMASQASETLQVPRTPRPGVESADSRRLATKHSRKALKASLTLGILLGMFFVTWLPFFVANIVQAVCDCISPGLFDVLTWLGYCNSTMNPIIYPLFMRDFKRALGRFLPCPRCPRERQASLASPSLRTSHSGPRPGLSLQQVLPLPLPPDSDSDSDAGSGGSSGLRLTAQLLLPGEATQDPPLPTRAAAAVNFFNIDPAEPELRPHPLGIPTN
row,SMILES,Ki [nM]
1,"Cc1nc2c(N3CCNCC3)cccc2n1S(=O)(=O)c1cccc(C(F)(F)F)c1 [Example 49, 2-methyl-4-piperazin-1-yl-1-{[3-(trifluoromethyl)phenyl]sulfonyl}-1H-benzimidazole]",0.982
2,"O=S(=O)(c1cccc2c(Cl)cccc12)n1cnc2c(N3CCNCC3)cccc21 [Example 50, 1-[(5-chloro-1-naphthyl)sulfonyl]-4-piperazin-1-yl-1H-benzimidazole]",1.36
3,"CC1CN(c2cccc3c2ncn3S(=O)(=O)c2ccccc2Cl)CCN1 (centres unmarked) [Example 53, 1-[(2-chlorophenyl)sulfonyl]-4-(3-methylpiperazin-1-yl)-1H-benzimidazole]",1.34
4,"Cc1cccc(S(=O)(=O)n2cnc3c(N4CCNC(C)C4)cccc32)c1 (centres unmarked) [Example 55, 1-[(3-methylphenyl)sulfonyl]-4-(3-methylpiperazin-1-yl)-1H-benzimidazole]",2.47
5,"COc1ccccc1S(=O)(=O)n1cnc2c(N3CCNC(C)C3)cccc21 (centres unmarked) [Example 56, 1-[(2-methoxyphenyl)sulfonyl]-4-(3-methylpiperazin-1-yl)-1H-benzimidazole]",2.35
6,"CC1CN(c2cccc3c2ncn3S(=O)(=O)c2ccccc2OC(F)(F)F)CCN1 (centres unmarked) [Example 57, 4-(3-methylpiperazin-1-yl)-1-{[2-(trifluoromethoxy)phenyl]sulfonyl}-1H-benzimidazole]",2.09
7,"Cc1c(Cl)cccc1S(=O)(=O)n1cnc2c(N3CCNC(C)C3)cccc21 (centres unmarked) [Example 58, 1-[(3-chloro-2-methylphenyl)sulfonyl]-4-(3-methylpiperazin-1-yl)-1H-benzimidazole]",1.73
8,"CC(C)c1nc2c(N3CCNCC3)cccc2n1S(=O)(=O)c1cccc2ccccc12 [Example 61, 2-(1-methylethyl)-1-(naphthalen-1-ylsulfonyl)-4-piperazin-1-yl-1H-benzimidazole]",0.6
9,"Cc1ccc(S(=O)(=O)n2c(C(C)C)nc3c(N4CCNCC4)cccc32)c2ccccc12 [Example 64, 2-(1-methylethyl)-1-[(4-methylnaphthalen-1-yl)sulfonyl]-4-piperazin-1-yl-1H-benzimidazole]",1.6
10,"COc1ccc(Cl)cc1S(=O)(=O)n1cnc2c(N3CCNCC3)cccc21 [Example 65, 1-[(5-chloro-2-methoxyphenyl)sulfonyl]-4-piperazin-1-yl-1H-benzimidazole]",3.56
11,"COc1ccc(OC)c(S(=O)(=O)n2cnc3c(N4CCNCC4)cccc32)c1 [Example 67, 1-[(2,5-dimethoxyphenyl)sulfonyl]-4-piperazin-1-yl-1H-benzimidazole]",2.13
12,"COc1ccc(C)cc1S(=O)(=O)n1cnc2c(N3CCNCC3)cccc21 [Example 68, 1-[(2-methoxy-5-methylphenyl)sulfonyl]-4-piperazin-1-yl-1H-benzimidazole]",0.498
13,"COc1cc(C)ccc1S(=O)(=O)n1cnc2c(N3CCNCC3)cccc21 [Example 69, 1-[(2-methoxy-4-methylphenyl)sulfonyl]-4-piperazin-1-yl-1H-benzimidazole]",2.15
14,"C[C@@H]1CN(c2cccc3c2ncn3S(=O)(=O)c2cccc(Cl)c2)CCN1 [Example 76, 1-[(3-chlorophenyl)sulfonyl]-4-[(3R)-3-methylpiperazin-1-yl]-1H-benzimidazole]",2.35
15,"C[C@H]1CN(c2cccc3c2ncn3S(=O)(=O)c2ccccc2Cl)CCN1 [Example 79, 1-[(2-chlorophenyl)sulfonyl]-4-[(3S)-3-methylpiperazin-1-yl]-1H-benzimidazole]",0.282
16,"C[C@H]1CN(c2cccc3c2ncn3S(=O)(=O)c2cccc(Cl)c2)CCN1 [Example 80, 1-[(3-chlorophenyl)sulfonyl]-4-[(3S)-3-methylpiperazin-1-yl]-1H-benzimidazole]",0.483
17,"C[C@H]1CN(c2cccc3c2ncn3S(=O)(=O)c2cccc3ccccc23)CCN1 [Example 81, 4-[(3S)-3-methylpiperazin-1-yl]-1-(naphthalen-1-ylsulfonyl)-1H-benzimidazole]",0.354
18,"Cc1c(Cl)cccc1S(=O)(=O)n1cnc2c(N3CCN[C@@H](C)C3)cccc21 [Example 82, 1-[(3-chloro-2-methylphenyl)sulfonyl]-4-[(3S)-3-methylpiperazin-1-yl]-1H-benzimidazole]",0.21
19,"O=S(=O)(c1cc(F)ccc1F)n1cnc2c(N3CCNCC3)cccc21 [Example 84, 1-[(2,5-difluorophenyl)sulfonyl]-4-piperazin-1-yl-1H-benzimidazole]",0.855
20,"O=S(=O)(c1c(Cl)cccc1Cl)n1cnc2c(N3CCNCC3)cccc21 [Example 86, 1-[(2,6-dichlorophenyl)sulfonyl]-4-piperazin-1-yl-1H-benzimidazole]",1.33

# Further compounds by falling Ki, results first:
row,Ki [nM],SMILES
1,13.7,"O=S(=O)(c1cc(C(F)(F)F)ccc1Cl)n1cnc2c(N3CCNCC3)cccc21 [Example 71, 1-{[2-chloro-5-(trifluoromethyl)phenyl]sulfonyl}-4-piperazin-1-yl-1H-benzimidazole]"
2,6.27,"Cc1ccc(S(=O)(=O)n2c(C)nc3c(N4CCNCC4)cccc32)c2ccccc12 [Example 51, 2-methyl-1-[(4-methyl-1-naphthyl)sulfonyl]-4-piperazin-1-yl-1H-benzimidazole]"
3,4.93,"COc1ccc(Br)cc1S(=O)(=O)n1cnc2c(N3CCNCC3)cccc21 [Example 66, 1-[(5-bromo-2-methoxyphenyl)sulfonyl]-4-piperazin-1-yl-1H-benzimidazole]"
4,2.94,"Cc1nc2c(N3CCNCC3)cccc2n1S(=O)(=O)c1ccccc1C(F)(F)F [Example 48, 2-methyl-4-piperazin-1-yl-1-{[2-(trifluoromethyl)phenyl]sulfonyl}-1H-benzimidazole]"
5,2.33,"Cc1cccc(Cl)c1S(=O)(=O)n1cnc2c(N3CCNCC3)cccc21 [Example 70, 1-[(2-chloro-6-methylphenyl)sulfonyl]-4-piperazin-1-yl-1H-benzimidazole]"
6,2.26,"Cc1ccccc1S(=O)(=O)n1c(C)nc2c(N3CCNCC3)cccc21 [Example 47, 2-methyl-1-[(2-methylphenyl)sulfonyl]-4-piperazin-1-yl-1H-benzimidazole]"
7,2.07,"COc1cccc(S(=O)(=O)n2c(C)nc3c(N4CCNCC4)cccc32)c1 [Example 45, 1-[(3-methoxyphenyl)sulfonyl]-2-methyl-4-piperazin-1-yl-1H-benzimidazole]"
8,1.92,"CC1CN(c2cccc3c2ncn3S(=O)(=O)c2cccc(Cl)c2)CCN1 (centres unmarked) [Example 54, 1-[(3-chlorophenyl)sulfonyl]-4-(3-methylpiperazin-1-yl)-1H-benzimidazole]"
9,1.89,"COc1ccccc1S(=O)(=O)n1c(C)nc2c(N3CCNCC3)cccc21 [Example 52, 1-[(2-methoxyphenyl)sulfonyl]-2-methyl-4-piperazin-1-yl-1H-benzimidazole]"
10,1.74,"Cc1nc2c(N3CCNCC3)cccc2n1S(=O)(=O)c1ccccc1OC(F)(F)F [Example 46, 2-methyl-4-piperazin-1-yl-1-{[2-(trifluoromethoxy)phenyl]sulfonyl}-1H-benzimidazole]"
11,1.47,"CC(C)c1nc2c(N3CCNCC3)cccc2n1S(=O)(=O)c1cccc2c(Cl)cccc12 [Example 62, 1-[(5-chloronaphthalen-1-yl)sulfonyl]-2-(1-methylethyl)-4-piperazin-1-yl-1H-benzimidazole]"
12,1.28,"C[C@@H]1CN(c2cccc3c2ncn3S(=O)(=O)c2cccc3ccccc23)CCN1 [Example 78, 4-[(3R)-3-methylpiperazin-1-yl]-1-(naphthalen-1-ylsulfonyl)-1H-benzimidazole]"
13,1.2,"Cc1c(Cl)cccc1S(=O)(=O)n1cnc2c(N3CCN[C@H](C)C3)cccc21 [Example 77, 1-[(3-chloro-2-methylphenyl)sulfonyl]-4-[(3R)-3-methylpiperazin-1-yl]-1H-benzimidazole]"
14,1.19,"C[C@@H]1CN(c2cccc3c2ncn3S(=O)(=O)c2ccccc2Cl)CCN1 [Example 75, 1-[(2-chlorophenyl)sulfonyl]-4-[(3R)-3-methylpiperazin-1-yl]-1H-benzimidazole]"
15,1.14,"CC(C)c1nc2c(N3CCNCC3)cccc2n1S(=O)(=O)c1ccccc1OC(F)(F)F [Example 63, 2-(1-methylethyl)-4-piperazin-1-yl-1-{[2-(trifluoromethoxy)phenyl]sulfonyl}-1H-benzimidazole]"
16,1.08,CC(C)c1nc2c(N3CCNCC3)cccc2n1S(=O)(=O)c1cccc(Cl)c1 [Example 60]
17,0.589,"O=S(=O)(c1cc(F)cc(Cl)c1)n1cnc2c(N3CCNCC3)cccc21 [Example 88, 1-[(3-chloro-5-fluorophenyl)sulfonyl]-4-piperazin-1-yl-1H-benzimidazole]"
18,0.485,"COc1c(F)cccc1S(=O)(=O)n1cnc2c(N3CCNCC3)cccc21 [Example 74, 1-[(3-fluoro-2-methoxyphenyl)sulfonyl]-4-piperazin-1-yl-1H-benzimidazole]"
19,0.463,"CC(C)c1nc2c(N3CCNCC3)cccc2n1S(=O)(=O)c1ccccc1Cl [Example 59, 1-[(2-chlorophenyl)sulfonyl]-4-(1-methylethyl)-4-piperazin-1-yl-1H-benzimidazole]"
20,0.402,"Cc1c(F)cccc1S(=O)(=O)n1cnc2c(N3CCNCC3)cccc21 [Example 87, 1-[(3-fluoro-2-methylphenyl)sulfonyl]-4-piperazin-1-yl-1H-benzimidazole]"
21,0.397,"O=S(=O)(c1cccc(F)c1F)n1cnc2c(N3CCNCC3)cccc21 [Example 83, 1-[(2,3-difluorophenyl)sulfonyl]-4-piperazin-1-yl-1H-benzimidazole]"
22,0.254,"Cc1ccc(F)c(S(=O)(=O)n2cnc3c(N4CCNCC4)cccc32)c1 [Example 72, 1-[(2-fluoro-5-methylphenyl)sulfonyl]-4-piperazin-1-yl-1H-benzimidazole]"
23,0.202,"Cc1cccc(S(=O)(=O)n2cnc3c(N4CCNCC4)cccc32)c1F [Example 73, 1-[(2-fluoro-3-methylphenyl)sulfonyl]-4-piperazin-1-yl-1H-benzimidazole]"
24,0.156,"COc1ccccc1S(=O)(=O)n1cnc2c(N3CCNCC3)cccc21 [Example 44, 1-[(2-methoxyphenyl)sulfonyl]-4-piperazin-1-yl-1H-benzimidazole]"
